The values below are quoted from earlier work in patent US20030026872A1, “Compositions having enhanced aqueous solubility and methods of their preparation” (The Procter & Gamble Co., priority 2001, published 2003).

Peptide text beside a SMILES is read from it.

The conditions of the data set: relative to sucrose.
As to `OC[C@@H](O)[C@@H](O[C@H]1O[C@H](CO)[C@@H](O)[C@H](O)[C@H]1O)[C@H](O)[C@@H](O)CO` [maltitol], the “relative sweetening intensity (RSI)” value is reported as “about 0.8 times that of sucrose”.

In the case of `OC[C@@H](O)[C@H](O)[C@@H](O)CO` [xylitol], the “relative sweetening intensity (RSI)” value was “about equal to sucrose”.

In the case of `CC(C)=CCC[C@](C)(O)[C@@H]1CCC(C)=CC1=O` [hemandulcin], the “relative sweetening intensity (RSI)” value is “about 1000 times that of sucrose”. Regarding `OC[C@H]1O[C@H](O[C@]2(CCl)O[C@H](CCl)[C@@H](O)[C@@H]2O)[C@H](O)[C@@H](O)[C@H]1Cl` [sucralose], the “relative sweetening intensity (RSI)” value is recorded as “about 600 times that of sucrose”. On to `OC[C@@H](O)[C@@H](O)[C@H](O)[C@@H](O)CO` [sorbitol], for which the “relative sweetening intensity (RSI)” value was “about 0.6 times that of sucrose”. As for cyclamates, the “relative sweetening intensity (RSI)” value is “about 30 times that of sucrose”. Regarding `OC[C@@H](O)[C@@H](O[C@@H]1O[C@H](CO)[C@H](O)[C@H](O)[C@H]1O)[C@H](O)[C@@H](O)CO` [lactitol], the “relative sweetening intensity (RSI)” value is reported as “about 0.4 times that of sucrose”.

Turning to `OC[C@@H](O)[C@@H](O)CO` [erythritol], the “relative sweetening intensity (RSI)” value is reported as “about 0.7 times that of sucrose”. For `C=C1C[C@@]23CC[C@H]4[C@@](C)(CCC[C@@]4(C)C(=O)O[C@@H]4O[C@H](CO)[C@@H](O)[C@H](O)[C@H]4O)[C@@H]2CC[C@]1(O[C@@H]1O[C@H](CO)[C@@H](O)[C@H](O)[C@H]1O[C@@H]1O[C@H](CO)[C@@H](O)[C@H](O)[C@H]1O)C3` [stevioside], the “relative sweetening intensity (RSI)” value is given as “about 300 times that of sucrose”. In the case of `OC[C@H]1O[C@@](CO)(O[C@H]2O[C@H](CO)[C@@H](O)[C@H](O)[C@H]2O)[C@@H](O)[C@@H]1O` [sucrose], the “relative sweetening intensity (RSI)” value is listed as “one”. Regarding `O=C1NS(=O)(=O)c2ccccc21` [saccharin], the “relative sweetening intensity (RSI)” value is given as “about 300 times that of sucrose”. For the compound isomalt, the “relative sweetening intensity (RSI)” value is “about 0.5 times that of sucrose”.

Take `C[C@@H](NC(=O)[C@@H](N)CC(=O)O)C(=O)NC1C(C)(C)SC1(C)C` [alitame]: the “relative sweetening intensity (RSI)” value is given as “about 2000 times that of sucrose”. `COC(=O)[C@H](Cc1ccccc1)NC(=O)[C@@H](N)CC(=O)O` [aspartame, N-L-alpha-aspartyl-phenylalanine-l-methyl ester] (H-Asp-Phe-OMe): the “relative sweetening intensity (RSI)” value is “about 180 times that of sucrose”. Take `OC[C@@H](O)[C@@H](O)[C@H](O)[C@H](O)CO` [mannitol]: the “relative sweetening intensity (RSI)” value is recorded as “about 0.7 times that of sucrose”. Consider `CC1=CC(=O)[N-]S(=O)(=O)O1.[K+]` [acesulfame K], for which the “relative sweetening intensity (RSI)” value is “about 200 times that of sucrose”.
